Assay results: patent publication US12156880B2, “Heterocyclic RIP1 kinase inhibitors” (Rigel Pharmaceuticals, Inc., priority 2021, dated 2024)

What was measured:
[1] = molecular target: T1, RIPK1 (Homo sapiens, UniProt Q13546); test: RIPK1 ADP-Glo biochemical kinase assay; details: read-out: RIPK1 ADP-Glo Kinase (IC50)
T1 sequence (Q13546 1-671): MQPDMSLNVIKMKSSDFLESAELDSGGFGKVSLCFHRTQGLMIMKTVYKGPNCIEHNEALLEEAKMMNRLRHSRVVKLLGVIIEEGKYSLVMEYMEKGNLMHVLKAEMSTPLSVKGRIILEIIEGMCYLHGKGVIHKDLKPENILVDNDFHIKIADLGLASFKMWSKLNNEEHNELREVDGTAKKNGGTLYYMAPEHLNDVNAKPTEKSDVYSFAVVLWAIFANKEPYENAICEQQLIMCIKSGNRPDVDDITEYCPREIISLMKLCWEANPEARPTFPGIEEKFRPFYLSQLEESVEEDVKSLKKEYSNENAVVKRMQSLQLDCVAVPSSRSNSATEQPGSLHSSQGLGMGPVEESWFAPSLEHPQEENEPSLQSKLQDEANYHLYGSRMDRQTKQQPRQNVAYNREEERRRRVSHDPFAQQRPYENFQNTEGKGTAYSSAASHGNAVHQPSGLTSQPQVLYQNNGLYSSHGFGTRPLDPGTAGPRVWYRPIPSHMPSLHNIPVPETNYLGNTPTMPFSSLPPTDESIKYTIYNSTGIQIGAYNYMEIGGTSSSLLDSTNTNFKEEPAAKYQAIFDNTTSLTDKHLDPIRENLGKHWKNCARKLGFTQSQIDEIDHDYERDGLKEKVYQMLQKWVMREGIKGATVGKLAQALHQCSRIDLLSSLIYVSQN
Procedure: In this example, compounds of the disclosure were evaluated using a biochemical assay using the ADP-Glo™ technology.
ADP-Glo™ (Promega, Madison, WI, USA) reagents were thawed at ambient temperature. Kinase Detection Reagent was prepared by mixing kinase detection buffer with the lyophilized kinase detection substrate.
A […] stock volume of 5× Reaction Kinase Buffer was made by mixing 1000 μl of 1M MgCl2, 500 μl of 1M Tris-HCL pH7.4, 0.5 mg/ml (25 mg) of BSA, and 3475 μl of distilled H2O. A 3 ml 2× working stock volume of Reaction Kinase Buffer was made containing a final concentration of 100 μM DTT and 4 mM MnCl2.
Components of RIPK1 enzyme (Rigel Pharmaceuticals, South San Francisco, CA, USA) were thawed on ice. Diluted RIPK1 was prepared in 1× Kinase Reaction Buffer (diluted from 2× buffer) to 31 ng/well.
1.0 ul of diluted compound was added to a 384 well plate in duplicate. […] The final reaction volume was 5.0 μl.
The plate was quickly centrifuged and the reaction was incubated at 30° C. for 30 minutes. Adding 5 μl of ADP-Glo™ terminated the reaction. The plate was quickly centrifuged and the reaction was incubated at room temperature for 40 minutes. Kinase Detection Reagent was then added and incubated at room temperature for 30 minutes. The relative light unit (RLU) of kinase reaction was determined by luminescent (Luminescence 0.1 s) using a Wallac Victor2 Luminometer (PerkinElmer, Waltham, MA, USA).

[2] = system: L929 cells; test: L929 cell necroptosis assay (TNFa + zVAD, CellTiter-Glo recovery); format: cell-based, murine; parameters: L929-CTG-recovery, L929, TNFa + zVAD (IC50): unit not given here; details: TNFa 2 ng/mL + zVAD-fmk; for IC50: Mus musculus, L929, 18 h, read-out: L929-CTG-recovery, L929, TNFa + zVAD (IC50); for L929-CTG-recovery, L929, TNFa + zVAD (IC50): 18 hours
Procedure: (§1) In this example, U937 and L929 cells were exposed to compounds of the present disclosure and a cell necroptosis assay was conducted to evaluate the compounds' activity against human RIP1 and murine RIP1.
(§2) U937 and L929 cells were obtained from the American Type Culture Collection (Manassas, VA, USA). Both cells were maintained in logarithmic growth phase in complete RPMI 1640 media (Sigma, ST Louis, MO, USA) supplemented with 10% fetal bovine serum (Sigma, ST Louis, MO, USA) at 37° C. with 5% CO2. For necroptosis assay, L929 cells were plated for 18 h in 100 μL/well medium at 10K cells/well in Costar 96-well black clear-bottom plates (Fisher Scientific, Hampton, NH, USA); U937 cells were plated on the day of the assay in 50 μL/well medium containing 60 uM zVAD-fmk (Lonza, Basel, Switzerland) at 50K cells/well. Medium from L929 cells were removed from the 96-well plates and replaced with 50 μL/well new medium containing 40 uM zVAD-fmk. Each compound of the present disclosure evaluated in this example was serially diluted in DMSO from 2.5 mM in 4-fold dilutions, and then diluted 1:125 in complete medium. 50 μL/well 2× of the compound was then added to the cells in the plates. The cells were pre-incubated with the compound for 1 hour at 37° C. with 5% CO2 and before addition of 10 μL/well 11×TNFa (Peprotech, Rocky Hill, NJ, USA) to give a final concentration of 2 ng/mL for TNFa. The relative amount of necroptosis cells was determined by luminescent using a Wallac Victor2 Luminometer (PerkinElmer, Waltham, MA, USA) and a CellTiter-Glo® Luminescent Cell Viability Reagent Assay (Promega, Madison, WI, USA) added per manufacturer instructions after 18 hours of TNFa stimulation at 37° C. with 5% CO2. This example establishes that embodiments of the compounds described herein have unexpectedly potent activity against human RIP1 and murine RIP1, which allows their assessment in in vivo mouse models of disease.

[3] = system: U937 cells; test: U937 cell necroptosis assay (TNFa + zVAD, CellTiter-Glo recovery); format: cell-based; details: Homo sapiens, U-937, 18 h, TNFa 2 ng/mL + zVAD-fmk, read-out: U937 Zvad TNF CTG Recovery, U937, TNFa + zVAD (IC50)
Procedure: as §1, §2

Row | IC50 [1] | Compound | IC50 [2] | IC50 [3] | L929-CTG-recovery, L929, TNFa + zVAD (IC50) [2]
1 | 14 nM | CN1C(=O)[C@@H](NC(=O)c2cc(Oc3cnn(C)c3)ccn2)COc2ccc(C#CC3(O)CCC3)cc21 [I-133, (S)—N-(7-((1-hydroxycyclobutyl)ethynyl)-5-methyl-4-oxo-2,3,4,5-tetrahydrobenzo[b][1,4]oxazepin-3-yl)-4-((1-methyl-1H-pyrazol-4-yl)oxy)picolinamide] | 58.2 nM | 5.2 nM | –
2 | 20.1 nM | CN1C(=O)[C@@H](NC(=O)c2cc(Oc3cncc(F)c3)ccn2)COc2ccc(C#CC3COC3)cc21 [I-67, (S)-4-((5-fluoropyridin-3-yl)oxy)-N-(5-methyl-7-(oxetan-3-ylethynyl)-4-oxo-2,3,4,5-tetrahydrobenzo[b][1,4]oxazepin-3-yl)picolinamide] | 348 nM | 1.3 nM | –
3 | 24 nM | CCc1nc(Cc2ccnc(C(=O)N[C@H]3COc4ccc(C#CC(C)(C)O)cc4N(C)C3=O)c2)cs1 [I-98, (S)-4-((2-ethylthiazol-4-yl)methyl)-N-(7-(3-hydroxy-3-methylbut-1-yn-1-yl)-5-methyl-4-oxo-2,3,4,5-tetrahydrobenzo[b][1,4]oxazepin-3-yl)picolinamide] | 111 nM | 15.5 nM | –
4 | 87.8 nM | CN1C(=O)[C@@H](NC(=O)c2cc(Cn3cccn3)ccn2)COc2ccc(C#CC(C)(C)O)cc21 [I-71, (S)-4-((1H-pyrazol-1-yl)methyl)-N-(7-(3-hydroxy-3-methylbut-1-yn-1-yl)-5-methyl-4-oxo-2,3,4,5-tetrahydrobenzo[b][1,4]oxazepin-3-yl)picolinamide] | 2150 nM | 549 nM | –
5 | – | CN1C(=O)[C@@H](NC(=O)n2cc(Cc3ccncc3)cn2)COc2ccc(Br)cc21 [I-28, (S)—N-(7-Bromo-5-methyl-4-oxo-2,3,4,5-tetrahydrobenzo[b][1,4]oxazepin-3-yl)-4-(pyridin-4-ylmethyl)-1H-pyrazole-1-carboxamide] | – | 235 nM | 5027
6 | 19.1 nM | CN1C(=O)[C@@H](NC(=O)c2cc(Oc3cccnc3F)ccn2)COc2ccc(C#CC3(O)CCC3)cc21 [I-83, (S)-4-((2-fluoropyridin-3-yl)oxy)-N-(7-((1-hydroxycyclobutyl)ethynyl)-5-methyl-4-oxo-2,3,4,5-tetrahydrobenzo[b][1,4]oxazepin-3-yl)picolinamide] | 218 nM | 1.4 nM | –
7 | – | CN1C(=O)[C@@H](NC(=O)n2cc(Cc3cccc(F)n3)cn2)COc2ccc(Br)cc21 [I-20, (S)—N-(7-Bromo-5-methyl-4-oxo-2,3,4,5-tetrahydrobenzo[b][1,4]oxazepin-3-yl)-4-((6-fluoropyridin-2-yl)methyl)-1H-pyrazole-1-carboxamide] | – | 50.2 nM | 5004
8 | – | CN1C(=O)[C@@H](NC(=O)n2cc(Cc3cccc(C(F)(F)F)n3)cn2)COc2ccc(Br)cc21 [I-21, (S)—N-(7-Bromo-5-methyl-4-oxo-2,3,4,5-tetrahydrobenzo[b][1,4]oxazepin-3-yl)-4-((6-(trifluoromethyl)pyridin-2-yl)methyl)-1H-pyrazole-1-carboxamide] | 30400 nM | 1370 nM | –
9 | – | CN1C(=O)[C@@H](NC(=O)c2cc(Cc3cocn3)ccn2)COc2ccc(C#CC3(O)COC3)cc21 [I-138, (S)—N-(7-((3-hydroxyoxetan-3-yl)ethynyl)-5-methyl-4-oxo-2,3,4,5-tetrahydrobenzo[b][1,4]oxazepin-3-yl)-4-(oxazol-4-ylmethyl)picolinamide] | 106 nM | 12.9 nM | –
10 | – | CN1C(=O)[C@@H](NC(=O)n2cc(Cc3cccnc3)cn2)COc2ccc(Br)cc21 [I-22, (S)—N-(7-Bromo-5-methyl-4-oxo-2,3,4,5-tetrahydrobenzo[b][1,4]oxazepin-3-yl)-4-(pyridin-3-ylmethyl)-1H-pyrazole-1-carboxamide] | – | 35.1 nM | 5004
11 | – | CN1C(=O)[C@@H](NC(=O)n2cc(Oc3cccc(F)n3)cn2)COc2ccc(C#CC3CCOCC3)cc21 [I-111, (S)-4-((6-Fluoropyridin-2-yl)oxy)-N-(5-methyl-4-oxo-7-((tetrahydro-2H-pyran-4-yl)ethynyl)-2,3,4,5-tetrahydrobenzo[b][1,4]oxazepin-3-yl)-1H-pyrazole-1-carboxamide] | 85200 nM | 7270 nM | –
12 | – | CN1C(=O)[C@@H](NC(=O)n2cc(Cc3ccccn3)cn2)COc2ccc(Br)cc21 [I-18, (S)—N-(7-Bromo-5-methyl-4-oxo-2,3,4,5-tetrahydrobenzo[b][1,4]oxazepin-3-yl)-4-(pyridin-2-ylmethyl)-1H-pyrazole-1-carboxamide] | – | 286 nM | 5013
13 | 80.4 nM | CN1C(=O)[C@@H](NC(=O)n2cc(Oc3cccc(F)n3)cn2)COc2ccc(C#CC(C)(C)O)cc21 [I-112, (S)-4-((6-Fluoropyridin-2-yl)oxy)-N-(7-(3-hydroxy-3-methylbut-1-yn-1-yl)-5-methyl-4-oxo-2,3,4,5-tetrahydrobenzo[b][1,4]oxazepin-3-yl)-1H-pyrazole-1-carboxamide] | – | 1850 nM | –

Row | Compound | IC50 [1] | IC50 [2] | IC50 [3] | L929-CTG-recovery, L929, TNFa + zVAD (IC50) [2]
14 | CN1C(=O)[C@@H](NC(=O)n2cc(Cc3cccc(F)n3)cn2)COc2ccc(C#CC(C)(C)O)cc21 [I-1, (S)-4-((6-Fluoropyridin-2-yl)methyl)-N-(7-(3-hydroxy-3-methylbut-1-yn-1-yl)-5-methyl-4-oxo-2,3,4,5-tetrahydrobenzo[b][1,4]oxazepin-3-yl)-1H-pyrazole-1-carboxamide] | 20.6 nM | 2300 nM | 11.4 nM | –
15 | Cc1ccc(Cc2cnn(C(=O)N[C@H]3COc4ccc(Br)cc4N(C)C3=O)c2)cn1 [I-23, (S)—N-(7-Bromo-5-methyl-4-oxo-2,3,4,5-tetrahydrobenzo[b][1,4]oxazepin-3-yl)-4-((6-methylpyridin-3-yl)methyl)-1H-pyrazole-1-carboxamide] | 25.7 nM | – | 81.8 nM | 5000
16 | CN1C(=O)[C@@H](NC(=O)n2cc(Cc3cccc(F)n3)cn2)CCc2ccc(C#CC(C)(C)CO)cc21 [I-115, (S)-4-((6-fluoropyridin-2-yl)methyl)-N-(8-(4-hydroxy-3,3-dimethylbut-1-yn-1-yl)-1-methyl-2-oxo-2,3,4,5-tetrahydro-1H-benzo[b]azepin-3-yl)-1H-pyrazole-1-carboxamide] | 28.3 nM | 38.5 nM | 0.5 nM | –
